Experimental data taken from paper PMC10175918 (Communications Biology, 2023).
Like-named read-outs stand apart in the source and are kept apart here.

Key:
Experiment in all cases: TGFα-shedding assay-based GPCR screening with chimeric Gα subunit proteins
Assay type in all cases: cell-based
348 GPCRs [1] = biological target: T1, 348 GPCRs (Homo sapiens, UniProt P50406); settings: 10µM, Favipiravir 100μM
T1 construct: expressed in transfected cells; host or cells: HEK293A

348 GPCRs [2] = biological target: T2, 348 GPCRs (Homo sapiens, UniProt P51810); settings: 10µM, Favipiravir 100μM
T2 construct: expressed in transfected cells; host or cells: HEK293A

348 GPCRs [3] = biological target: T3, 348 GPCRs (Homo sapiens, UniProt P49146); settings: 10µM, Favipiravir 100μM
T3 construct: expressed in transfected cells; host or cells: HEK293A
T3 sequence (P49146 1-381): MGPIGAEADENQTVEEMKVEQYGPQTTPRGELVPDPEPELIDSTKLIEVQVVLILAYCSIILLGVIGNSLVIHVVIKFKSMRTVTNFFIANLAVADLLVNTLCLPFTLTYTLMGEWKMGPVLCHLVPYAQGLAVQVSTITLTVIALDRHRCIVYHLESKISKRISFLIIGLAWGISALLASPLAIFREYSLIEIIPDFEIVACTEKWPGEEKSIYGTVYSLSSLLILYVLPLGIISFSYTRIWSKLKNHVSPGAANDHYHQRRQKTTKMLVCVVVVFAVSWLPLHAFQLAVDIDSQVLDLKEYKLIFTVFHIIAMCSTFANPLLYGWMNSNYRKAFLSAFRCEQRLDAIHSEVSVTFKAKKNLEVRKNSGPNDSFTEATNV

348 GPCRs [4] = biological target: T4, 348 GPCRs (Homo sapiens, UniProt Q13585)
T4 construct: expressed in transfected cells; host or cells: HEK293A

348 GPCRs [5] = biological target: T5, 348 GPCRs (Homo sapiens, UniProt O14843); settings: 10µM, Favipiravir 100μM
T5 construct: expressed in transfected cells; host or cells: HEK293A
T5 sequence (O14843 1-346): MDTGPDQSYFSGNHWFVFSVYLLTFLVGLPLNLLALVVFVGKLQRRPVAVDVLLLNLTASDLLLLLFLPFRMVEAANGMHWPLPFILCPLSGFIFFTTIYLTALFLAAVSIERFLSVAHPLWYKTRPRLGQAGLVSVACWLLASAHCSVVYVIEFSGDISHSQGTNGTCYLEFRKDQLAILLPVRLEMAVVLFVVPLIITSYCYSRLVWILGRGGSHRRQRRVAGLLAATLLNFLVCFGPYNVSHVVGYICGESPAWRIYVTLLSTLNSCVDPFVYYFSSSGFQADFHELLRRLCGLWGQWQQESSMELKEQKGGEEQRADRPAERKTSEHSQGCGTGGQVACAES

348 GPCRs [6] = biological target: T6, 348 GPCRs (Homo sapiens, UniProt O00590); settings: 10µM, Favipiravir 100μM
T6 construct: expressed in transfected cells; host or cells: HEK293A
T6 sequence (O00590 1-384): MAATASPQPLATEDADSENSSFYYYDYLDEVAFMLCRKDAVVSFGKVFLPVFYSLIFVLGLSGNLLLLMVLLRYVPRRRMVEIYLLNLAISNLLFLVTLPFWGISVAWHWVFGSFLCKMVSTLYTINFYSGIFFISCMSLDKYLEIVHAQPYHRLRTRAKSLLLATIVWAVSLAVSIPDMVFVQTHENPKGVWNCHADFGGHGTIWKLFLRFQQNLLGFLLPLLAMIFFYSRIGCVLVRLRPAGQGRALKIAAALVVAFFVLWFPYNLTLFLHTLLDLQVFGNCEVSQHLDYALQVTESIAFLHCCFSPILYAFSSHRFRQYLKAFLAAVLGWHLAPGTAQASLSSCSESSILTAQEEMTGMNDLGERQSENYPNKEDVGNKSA

348 GPCRs [7] = biological target: T7, 348 GPCRs (Homo sapiens, UniProt O15552); settings: 10µM, Favipiravir 100μM
T7 construct: expressed in transfected cells; host or cells: HEK293A
T7 sequence (O15552 1-330): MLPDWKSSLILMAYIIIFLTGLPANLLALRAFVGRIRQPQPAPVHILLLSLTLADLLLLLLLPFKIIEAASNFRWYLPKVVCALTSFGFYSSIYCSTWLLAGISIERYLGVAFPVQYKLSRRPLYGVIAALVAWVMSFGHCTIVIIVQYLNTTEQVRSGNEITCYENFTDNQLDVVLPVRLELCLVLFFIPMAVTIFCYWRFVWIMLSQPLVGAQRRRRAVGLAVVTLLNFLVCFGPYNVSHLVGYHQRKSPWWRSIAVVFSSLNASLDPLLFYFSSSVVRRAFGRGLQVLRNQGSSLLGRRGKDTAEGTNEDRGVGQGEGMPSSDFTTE

348 GPCRs [8] = biological target: T8, 348 GPCRs (Homo sapiens, UniProt P0DMS8); settings: 10µM, Favipiravir 100μM
T8 construct: expressed in transfected cells; host or cells: HEK293A
T8 sequence (P0DMS8 1-318): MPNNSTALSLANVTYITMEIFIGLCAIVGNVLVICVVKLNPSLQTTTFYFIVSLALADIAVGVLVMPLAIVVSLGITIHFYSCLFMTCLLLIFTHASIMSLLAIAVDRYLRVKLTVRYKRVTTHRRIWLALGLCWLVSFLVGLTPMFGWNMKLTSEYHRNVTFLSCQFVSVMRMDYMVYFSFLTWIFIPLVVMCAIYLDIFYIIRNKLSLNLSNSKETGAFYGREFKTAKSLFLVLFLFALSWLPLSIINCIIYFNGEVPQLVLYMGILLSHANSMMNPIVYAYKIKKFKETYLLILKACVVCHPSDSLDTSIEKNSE

348 GPCRs [9] = biological target: T9, 348 GPCRs (Homo sapiens, UniProt O15303); settings: 10µM, Favipiravir 100μM
T9 construct: expressed in transfected cells; host or cells: HEK293A

[10] = 5-HT6 (5-hydroxytryptamine receptor 6), read-out: % GPCR activation compared to TPA
[11] = GPR143 (G Protein-Coupled Receptor 143), read-out: % GPCR activation compared to TPA
[12] = NPY2R (neuropeptide Y receptor Y2), read-out: % GPCR activation compared to TPA
[13] = GPCR GPR50 (G Protein-Coupled Receptor 50), read-out: % GPCR activation compared to TPA
[14] = FFA3 (free fatty acid receptor 3), read-out: % GPCR activation compared to TPA
[15] = CCBP2 (chemokine binding protein 2), read-out: % GPCR activation compared to TPA
[16] = FFA2 (free fatty acid receptor 2), read-out: % GPCR activation compared to TPA
[17] = ADORA3 (adenosine A3 receptor), read-out: % GPCR activation compared to TPA
[18] = GRM6 (glutamate receptor, metabotropic 6), read-out: % GPCR activation compared to TPA
[19] = read-out: % GPCR activation compared to TPA, 5-HT6 (5-hydroxytryptamine receptor 6)
[20] = read-out: % GPCR activation compared to TPA, GPR143 (G Protein-Coupled Receptor 143)
[21] = read-out: % GPCR activation compared to TPA, NPY2R (neuropeptide Y receptor Y2)
[22] = read-out: % GPCR activation compared to TPA, GPCR GPR50 (G Protein-Coupled Receptor 50)
[23] = read-out: % GPCR activation compared to TPA, FFA3 (free fatty acid receptor 3)
[24] = read-out: % GPCR activation compared to TPA, CCBP2 (chemokine binding protein 2)
[25] = read-out: % GPCR activation compared to TPA, FFA2 (free fatty acid receptor 2)
[26] = read-out: % GPCR activation compared to TPA, ADORA3 (adenosine A3 receptor)
[27] = read-out: % GPCR activation compared to TPA, GRM6 (glutamate receptor, metabotropic 6)

T1 sequence (P50406 whole entry): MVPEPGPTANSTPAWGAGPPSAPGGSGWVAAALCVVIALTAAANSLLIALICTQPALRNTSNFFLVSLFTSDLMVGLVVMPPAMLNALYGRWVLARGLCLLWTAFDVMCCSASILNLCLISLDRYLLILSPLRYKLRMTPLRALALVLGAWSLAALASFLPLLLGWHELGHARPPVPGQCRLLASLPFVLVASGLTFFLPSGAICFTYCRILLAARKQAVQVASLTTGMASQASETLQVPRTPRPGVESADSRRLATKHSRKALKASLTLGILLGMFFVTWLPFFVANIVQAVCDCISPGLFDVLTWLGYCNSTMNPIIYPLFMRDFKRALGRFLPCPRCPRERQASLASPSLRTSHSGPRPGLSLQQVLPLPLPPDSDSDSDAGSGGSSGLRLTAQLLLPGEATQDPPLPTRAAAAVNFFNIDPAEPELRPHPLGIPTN
T9 sequence (O15303 25-877): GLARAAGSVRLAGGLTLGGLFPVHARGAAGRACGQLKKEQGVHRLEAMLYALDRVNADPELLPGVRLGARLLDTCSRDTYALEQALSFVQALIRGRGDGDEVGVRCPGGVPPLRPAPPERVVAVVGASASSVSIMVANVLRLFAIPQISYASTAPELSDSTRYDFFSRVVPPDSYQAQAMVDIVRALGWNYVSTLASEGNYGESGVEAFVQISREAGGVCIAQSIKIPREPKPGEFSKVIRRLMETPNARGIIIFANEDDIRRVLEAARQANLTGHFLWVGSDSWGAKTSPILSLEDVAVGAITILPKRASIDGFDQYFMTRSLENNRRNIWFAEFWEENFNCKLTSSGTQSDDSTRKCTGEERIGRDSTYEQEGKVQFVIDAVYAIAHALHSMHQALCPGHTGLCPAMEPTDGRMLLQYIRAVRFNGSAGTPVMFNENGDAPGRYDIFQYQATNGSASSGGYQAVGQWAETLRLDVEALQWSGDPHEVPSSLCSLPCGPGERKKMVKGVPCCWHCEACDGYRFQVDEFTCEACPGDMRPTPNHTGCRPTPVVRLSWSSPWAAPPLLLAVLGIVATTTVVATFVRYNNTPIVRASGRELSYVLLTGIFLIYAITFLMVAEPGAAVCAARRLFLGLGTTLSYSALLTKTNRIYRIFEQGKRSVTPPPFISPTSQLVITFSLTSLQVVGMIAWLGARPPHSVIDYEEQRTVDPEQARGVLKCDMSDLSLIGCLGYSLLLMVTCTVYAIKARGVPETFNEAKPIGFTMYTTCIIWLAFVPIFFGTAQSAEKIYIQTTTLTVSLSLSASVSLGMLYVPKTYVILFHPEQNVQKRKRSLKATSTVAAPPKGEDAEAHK
T2 sequence (P51810 whole entry): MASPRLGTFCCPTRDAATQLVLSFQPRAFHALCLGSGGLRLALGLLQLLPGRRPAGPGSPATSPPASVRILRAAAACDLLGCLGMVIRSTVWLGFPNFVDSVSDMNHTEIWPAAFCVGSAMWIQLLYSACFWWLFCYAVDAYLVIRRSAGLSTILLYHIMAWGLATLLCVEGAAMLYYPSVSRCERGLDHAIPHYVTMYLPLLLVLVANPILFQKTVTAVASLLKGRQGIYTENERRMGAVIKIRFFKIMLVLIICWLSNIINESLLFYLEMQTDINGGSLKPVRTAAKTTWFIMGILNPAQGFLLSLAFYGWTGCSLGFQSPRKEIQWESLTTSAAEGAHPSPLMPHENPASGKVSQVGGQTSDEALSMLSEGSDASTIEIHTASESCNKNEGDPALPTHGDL
T4 sequence (Q13585 whole entry): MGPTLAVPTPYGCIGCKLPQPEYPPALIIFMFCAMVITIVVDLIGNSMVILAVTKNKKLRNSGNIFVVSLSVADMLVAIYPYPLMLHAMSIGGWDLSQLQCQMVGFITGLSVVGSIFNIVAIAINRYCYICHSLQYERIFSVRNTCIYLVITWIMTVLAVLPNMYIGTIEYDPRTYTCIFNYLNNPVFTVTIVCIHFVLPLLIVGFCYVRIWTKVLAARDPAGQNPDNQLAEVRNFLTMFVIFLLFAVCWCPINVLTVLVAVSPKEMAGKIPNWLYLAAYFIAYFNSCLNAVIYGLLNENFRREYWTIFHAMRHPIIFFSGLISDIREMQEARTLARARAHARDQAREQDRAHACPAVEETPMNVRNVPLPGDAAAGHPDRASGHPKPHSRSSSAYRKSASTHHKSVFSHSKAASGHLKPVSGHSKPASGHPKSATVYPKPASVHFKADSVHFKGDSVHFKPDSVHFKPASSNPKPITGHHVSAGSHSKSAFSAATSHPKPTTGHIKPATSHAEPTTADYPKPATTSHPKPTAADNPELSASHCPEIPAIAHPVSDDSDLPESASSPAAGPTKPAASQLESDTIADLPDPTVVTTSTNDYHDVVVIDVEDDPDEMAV

## N#C[C@@]1(c2ccc3c(N)ncnn23)O[C@H](CO)[C@@H](O)[C@H]1O [GS441524]
348 GPCRs [1]; [10]
  activation at 100 µM: -0.422%
348 GPCRs [2]; [11]
  activation at 100 µM: -1.65%
348 GPCRs [3]; [12]
  activation at 100 µM: 0.462%
348 GPCRs [4]; [13]
  activation at 10 µM: -1.05%
348 GPCRs [5]; [14]
  activation at 10 µM: -0.449%
348 GPCRs [6]; [15]
  activation at 100 µM: -3.26%
348 GPCRs [7]; [16]
  activation at 10 µM: -2.64%
348 GPCRs [8]; [17]
  activation at 10 µM: 2.73%
348 GPCRs [9]; [18]
  activation at 10 µM: -1.17%

## CCC(CC)COC(=O)[C@H](C)N[P@](=O)(OC[C@H]1O[C@@](C#N)(c2ccc3c(N)ncnn23)[C@H](O)[C@@H]1O)Oc1ccccc1 [remdesivir]
348 GPCRs [1]; [19]
  activation at 100 µM: 0.785%
348 GPCRs [2]; [20]
  activation at 100 µM: -0.638%
348 GPCRs [3]; [21]
  activation at 100 µM: 1.07%
348 GPCRs [4]; [22]
  activation at 10 µM: -1.37%
348 GPCRs [5]; [23]
  activation at 10 µM: 4.74%
348 GPCRs [6]; [24]
  activation at 100 µM: -7.69%
348 GPCRs [7]; [25]
  activation at 10 µM: -1.72%
348 GPCRs [8]; [26]
  activation at 10 µM: 5.91%
348 GPCRs [9]; [27]
  activation at 10 µM: -1.74%

## CC(C)OC(=O)[C@H](C)N[P@](=O)(OC[C@H]1O[C@@H](n2ccc(=O)[nH]c2=O)[C@](C)(F)[C@@H]1O)Oc1ccccc1 [sofosbuvir]
348 GPCRs [1]; [19]
  activation at 100 µM: -1.12%
348 GPCRs [2]; [20]
  activation at 100 µM: -1.1%
348 GPCRs [3]; [21]
  activation at 100 µM: -5.23%
348 GPCRs [4]; [22]
  activation at 10 µM: -0.301%
348 GPCRs [5]; [23]
  activation at 10 µM: 0.217%
348 GPCRs [6]; [24]
  activation at 100 µM: -0.681%
348 GPCRs [7]; [25]
  activation at 10 µM: 0.172%
348 GPCRs [8]; [26]
  activation at 10 µM: -1.59%
348 GPCRs [9]; [27]
  activation at 10 µM: 2.66%

## NC(=O)c1nc(F)cnc1O [favipiravir, 6-fluoro-3-hydroxy-2-pyrazinecarboxamide]
348 GPCRs [1]; [10]
  activation at 100 µM: -1.66%
348 GPCRs [2]; [11]
  activation at 100 µM: -1.86%
348 GPCRs [3]; [12]
  activation at 100 µM: -0.896%
348 GPCRs [4]; GPCR GPR50 (G Protein-Coupled Receptor 50), 100μM, read-out: % GPCR activation compared to TPA
  activation at 100 µM: -0.692%
348 GPCRs [5]; [14]
  activation at 10 µM: -0.552%
348 GPCRs [6]; [15]
  activation at 100 µM: -6.14%
348 GPCRs [7]; [16]
  activation at 10 µM: -0.501%
348 GPCRs [8]; [17]
  activation at 10 µM: 2.09%
348 GPCRs [9]; [18]
  activation at 10 µM: -0.482%

## CC(C)C(=O)OC[C@H]1O[C@@H](n2ccc(NO)nc2=O)[C@H](O)[C@@H]1O [molnupiravir]
348 GPCRs [1]; [10]
  activation at 100 µM: -0.864%
348 GPCRs [2]; [11]
  activation at 100 µM: -2.51%
348 GPCRs [3]; [12]
  activation at 100 µM: -4.76%
348 GPCRs [4]; [13]
  activation at 10 µM: -1.45%
348 GPCRs [5]; [14]
  activation at 10 µM: -0.0973%
348 GPCRs [6]; [15]
  activation at 100 µM: -0.55%
348 GPCRs [7]; [16]
  activation at 10 µM: -4.09%
348 GPCRs [8]; [17]
  activation at 10 µM: -0.751%
348 GPCRs [9]; [18]
  activation at 10 µM: -2.76%
